Values quoted from earlier work in patent publication US20250382198A1, “ADSORBENT AND METHOD FOR REMOVING PER- AND/OR POLYFLUOROALKYL SUBSTANCES (PFAS) IN WATER MATRICES” (University of Central Florida Research Foundation, Inc., priority 2024, published 2025).

Row | SMILES | Log D | pKa
1 | O=C(O)C(F)(F)C(F)(F)C(F)(F)F [PFBA, Perfluorobutanoic acid] | −1.22 | 
2 | O=S(=O)(O)C(F)(F)C(F)(F)C(F)(F)C(F)(F)C(F)(F)C(F)(F)C(F)(F)C(F)(F)F [PFOS, Perfluorooctanesulfonic acid] | 3.05 | 
3 | O=C(O)C(F)(OC(F)(F)C(F)(F)C(F)(F)F)C(F)(F)F (centres unmarked) [GenX, hexafluoropropylene oxide dimer acid] | 0.47 | 2.84
4 | O=C(O)C(F)(F)C(F)(F)C(F)(F)C(F)(F)C(F)(F)C(F)(F)C(F)(F)F [PFOA, Perfluorooctanoic acid] | 1.58 | 
